Assay results as given in patent publication US20230151003A1, “COMPOUNDS AND METHODS OF USE” (Exelixis, Inc., priority 2020, published 2023).

Columns and labels:
Format in all cases: biochemical
Human AXL = biological target: T1, Human AXL (Homo sapiens, UniProt P30530); test: Human AXL kinase assay (HTRF KinEase); conditions: Table 2 Biological Activities, ATP at Km (1.0 μM)
T1 construct: Human AXL (residues 464-885; CarnaBio, 1 ng/ well); purchased CarnaBio
T1 sequence (P30530 464-885 isoform P30530-2): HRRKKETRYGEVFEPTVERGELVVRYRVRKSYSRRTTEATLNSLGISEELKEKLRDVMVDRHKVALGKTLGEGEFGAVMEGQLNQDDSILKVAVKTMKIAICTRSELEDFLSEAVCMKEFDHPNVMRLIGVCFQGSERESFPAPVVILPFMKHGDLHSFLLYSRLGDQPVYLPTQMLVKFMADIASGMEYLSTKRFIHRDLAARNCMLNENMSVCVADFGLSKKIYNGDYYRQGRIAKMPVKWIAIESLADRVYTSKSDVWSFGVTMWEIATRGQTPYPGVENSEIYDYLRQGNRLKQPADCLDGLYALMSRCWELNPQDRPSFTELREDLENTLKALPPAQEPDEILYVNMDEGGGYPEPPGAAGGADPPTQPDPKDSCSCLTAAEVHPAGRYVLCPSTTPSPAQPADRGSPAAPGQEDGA
Protocol: (§1) Kinase activity and compound inhibition were investigated using the HTRF® KinEase assay (Cisbio Cat #62TKOPEB) per manufacturer's instructions. In short, compounds were delivered in 300 nL volumes at 10 different concentrations in DMSO (3% final) to empty 384-well assay plates (Corning cat #3824). A mixture of enzyme, 1 μM biotynlated peptide substrate, and buffer in 10 μL volume was added. The assay was started upon the addition of ATP (at Km). The 10 μL reaction was incubated at room temperature. The reaction was stopped upon the addition of detection buffer containing streptavidin-XL665 (5 μL) and TK antibody-Eu3+ (5 μL). After a 60 min incubation at room temperature, the fluorescence at 665 nm and 620 nm was read on an Envision microplate reader (Perkin Elmer). Kinase activity normalized to DMSO (100% activity) and reference compound at 1 μM and (0% activity) was calculated using the fluorescence ratio […]. IC50 values were calculated by nonlinear regression analysis using a 4-parameter logistic curve fit in ActivityBase XE (IDBS).
Human AXL (residues 464-885; CarnaBio, 1 ng/ well) was incubated with enzymatic buffer (Cisbio) supplemented with 5 mM MgCl2, 1 mM DTT, and Supplemental Enzymatic Buffer (SEB; Cisbio). The mixture was added to the pre-plated compounds. The reaction was initiated upon addition of ATP at Km (1.0 μM). The reaction was incubated at room temperature for 50 min and stopped upon the addition of SA-XL665 and TK-antibody both diluted in EDTA-containing kinase detection buffer (Cisbio). The kinase activity was calculated as stated above and the IC50 values were reported.

KDR = KDR (Homo sapiens, UniProt P35968); test: Human KDR kinase assay (HTRF KinEase); parameters: Human KDR (residues 790-1356; CarnaBio, 0.1 ng/ well); purchased CarnaBio; conditions: Table 2 Biological Activities, ATP at Km (4.0 μM)
Protocol: as §1
(§2) Human KDR (residues 790-1356; CarnaBio, 0.1 ng/ well) was incubated with enzymatic buffer (Cisbio) supplemented with 5 mM MgCl2, 1 mM MnCl2, and 1 mM DTT. The mixture was added to the pre-plated compounds. The reaction was initiated upon addition of ATP at Km (4.0 μM). The reaction was incubated at room temperature for 40 min and stopped upon the addition of SA-XL665 and TK-antibody both diluted in EDTA-containing kinase detection buffer (Cisbio). The kinase activity was calculated as stated above and the IC50 values were reported.

Met = Met (Homo sapiens, UniProt P08581); test: Human MET kinase assay (HTRF KinEase); parameters: Human MET (residues 956-1390; CarnaBio, 0.1 ng/ well); purchased CarnaBio; conditions: Table 2 Biological Activities, ATP at Km (3.0 μM), read-out: c-Met IC50
Protocol: as §1
as §2, with “MET” for “KDR”, “956-1390;” for “790-1356;”, “DTT” for “MnCl2,”, “MnCl2.” for “DTT.”, “(3.0” for “(4.0”

Human MER = biological target: T2, Human MER (Homo sapiens, UniProt Q12866); test: Human MER kinase assay (HTRF KinEase); conditions: Table 2 Biological Activities, ATP at Km (40 μM)
T2 construct: Human MER (residues 528-999; CarnaBio, 1 ng/ well); purchased CarnaBio
T2 sequence (Q12866 528-999): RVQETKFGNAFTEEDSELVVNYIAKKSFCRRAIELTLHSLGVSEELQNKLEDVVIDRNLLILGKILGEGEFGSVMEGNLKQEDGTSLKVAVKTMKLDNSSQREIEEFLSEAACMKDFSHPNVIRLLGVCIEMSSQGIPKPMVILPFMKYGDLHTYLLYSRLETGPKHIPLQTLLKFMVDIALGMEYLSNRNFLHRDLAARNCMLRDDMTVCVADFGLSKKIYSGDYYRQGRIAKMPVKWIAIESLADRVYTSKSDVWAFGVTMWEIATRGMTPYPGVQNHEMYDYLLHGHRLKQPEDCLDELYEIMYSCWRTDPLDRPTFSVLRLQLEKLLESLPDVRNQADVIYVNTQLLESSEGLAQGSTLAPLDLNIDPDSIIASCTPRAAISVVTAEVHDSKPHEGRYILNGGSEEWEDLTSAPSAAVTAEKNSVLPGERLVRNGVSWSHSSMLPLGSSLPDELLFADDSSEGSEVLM
Protocol: as §1
as §2, with “MER” for “KDR”, “528-999;” for “790-1356;”, “1” for “0.1”, “MgCl2” for “MgCl2, 1 mM MnCl2,”, “(40” for “(4.0”, “60” for “40”

Met, sequence (P08581 956-1390): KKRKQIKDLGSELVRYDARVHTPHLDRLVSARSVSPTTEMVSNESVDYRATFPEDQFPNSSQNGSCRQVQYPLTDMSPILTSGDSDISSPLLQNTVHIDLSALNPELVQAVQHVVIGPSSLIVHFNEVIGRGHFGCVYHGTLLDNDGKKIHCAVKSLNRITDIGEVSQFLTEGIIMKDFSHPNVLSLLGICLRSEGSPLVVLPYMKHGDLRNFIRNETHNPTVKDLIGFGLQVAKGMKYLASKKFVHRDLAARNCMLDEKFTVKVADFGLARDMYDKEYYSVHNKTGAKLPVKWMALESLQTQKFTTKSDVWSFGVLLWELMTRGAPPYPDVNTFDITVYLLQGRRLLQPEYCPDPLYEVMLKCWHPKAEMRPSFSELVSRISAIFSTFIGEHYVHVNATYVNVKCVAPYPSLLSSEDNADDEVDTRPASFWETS
KDR, sequence (P35968 790-1356): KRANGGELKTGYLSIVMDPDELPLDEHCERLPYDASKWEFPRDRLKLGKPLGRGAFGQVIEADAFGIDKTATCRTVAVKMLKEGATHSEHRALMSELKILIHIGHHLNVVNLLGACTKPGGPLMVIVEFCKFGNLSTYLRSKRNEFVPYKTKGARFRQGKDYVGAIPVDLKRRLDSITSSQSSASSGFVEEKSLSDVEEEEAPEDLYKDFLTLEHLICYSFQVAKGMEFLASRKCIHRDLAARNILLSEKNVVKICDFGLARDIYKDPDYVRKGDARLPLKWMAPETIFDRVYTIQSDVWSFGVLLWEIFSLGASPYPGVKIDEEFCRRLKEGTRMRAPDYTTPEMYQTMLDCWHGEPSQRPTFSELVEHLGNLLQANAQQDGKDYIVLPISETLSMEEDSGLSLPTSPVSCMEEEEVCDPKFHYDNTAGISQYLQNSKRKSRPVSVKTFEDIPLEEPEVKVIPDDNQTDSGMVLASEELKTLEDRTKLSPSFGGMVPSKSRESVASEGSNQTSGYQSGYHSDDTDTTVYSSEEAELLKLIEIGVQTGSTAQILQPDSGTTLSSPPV

Row | IC50 (Human AXL) | IC50 (KDR) | IC50 (Met) | IC50 (Human MER) | SMILES
1 | ≤ 100 nM | 300 to 1000 nM | ≤ 100 nM | ≤ 100 nM | COc1cnc2c(Oc3ccc(NC(=O)c4ccc(C)n(-c5ncc(F)cc5C)c4=O)cc3F)ccnc2c1 [Compound 52, N-[3-Fluoro-4-[(7-methoxy-1,5-naphthyridin-4-yl)oxy]phenyl]-1-(5-fluoro-3-methylpyridin-2-yl)-6-methyl-2-oxopyridine-3-carboxamide]
2 | ≤ 100 nM | 100 to 300 nM | ≤ 100 nM | ≤ 100 nM | COc1cc2nccc(Oc3ccc(NC(=O)c4ccc(C)n(-c5ncc(F)cc5C)c4=O)cc3F)c2nc1OC [Compound 51, N-[4-[(6,7-Dimethoxy-1,5-naphthyridin-4-yl)oxy]-3-fluorophenyl]-1-(5-fluoro-3-methylpyridin-2-yl)-6-methyl-2-oxopyridine-3-carboxamide]
3 | ≤ 100 nM | 100 to 300 nM | ≤ 100 nM | ≤ 100 nM | COc1cnc2c(Oc3ccc(NC(=O)c4ccc(C)n(-c5ccc(F)cn5)c4=O)cc3F)ccnc2c1 [Compound 45, N-[3-Fluoro-4-[(7-methoxy-1,5-naphthyridin-4-yl)oxy]phenyl]-1-(5-fluoropyridin-2-yl)-6-methyl-2-oxopyridine-3-carboxamide]
4 | ≤ 100 nM | 300 to 1000 nM | ≤ 100 nM | ≤ 100 nM | COc1cc2nccc(Oc3ccc(NC(=O)c4cc(C(C)=O)c(C)n(-c5ccc(F)cn5)c4=O)cc3F)c2nc1OC [Compound 59, 5-Acetyl-N-[4-[(6,7-dimethoxy-1,5-naphthyridin-4-yl)oxy]-3-fluorophenyl]-1-(5-fluoropyridin-2-yl)-6-methyl-2-oxopyridine-3-carboxamide]
5 | ≤ 100 nM | ≤ 100 nM | ≤ 100 nM | ≤ 100 nM | COCCOc1cc2nccc(Oc3ccc(NC(=O)c4ccc(C)n(-c5ccc(F)cn5)c4=O)cc3F)c2nc1OC [Compound 50, N-[3-Fluoro-4-[[6-methoxy-7-(2-methoxyethoxy)-1,5-naphthyridin-4-yl]oxy]phenyl]-1-(5-fluoropyridin-2-yl)-6-methyl-2-oxopyridine-3-carboxamide]
6 | ≤ 100 nM | ≤ 100 nM | ≤ 100 nM | ≤ 100 nM | COc1cc2nccc(Oc3ccc(NC(=O)c4ccc(C)n(-c5ccc(F)cn5)c4=O)cc3F)c2nc1OC [Compound 43, N-[4-[(6,7-Dimethoxy-1,5-naphthyridin-4-yl)oxy]-3-fluorophenyl]-1-(5-fluoropyridin-2-yl)-6-methyl-2-oxopyridine-3-carboxamide]
7 | ≤ 100 nM | 300 to 1000 nM | ≤ 100 nM | ≤ 100 nM | COc1ccc2nccc(Oc3ccc(NC(=O)c4ccc(C)n(-c5ncc(F)cc5C)c4=O)cc3F)c2n1 [Compound 53, N-[3-Fluoro-4-[(6-methoxy-1,5-naphthyridin-4-yl)oxy]phenyl]-1-(5-fluoro-3-methylpyridin-2-yl)-6-methyl-2-oxopyridine-3-carboxamide]

Further lines, the compound ahead of its results:

Row | SMILES | IC50 (Human AXL) | IC50 (KDR) | IC50 (Met) | IC50 (Human MER)
8 | COc1cc2nccc(Oc3ccc(NC(=O)c4c(C)ncc(-c5ccccn5)c4O)cc3F)c2nc1OC [Compound 69, N-[4-[(6,7-Dimethoxy-1,5-naphthyridin-4-yl)oxy]-3-fluorophenyl]-4-hydroxy-2-methyl-5-pyridin-2-ylpyridine-3-carboxamide] | ≤ 100 nM | ≤ 100 nM | ≤ 100 nM | ≤ 100 nM
9 | COc1cc2nccc(Oc3ccc(NC(=O)c4cn(C)c(C)c(-c5ccc(F)cn5)c4=O)cc3)c2nc1OC [Compound 86, N-[4-[(6,7-Dimethoxy-1,5-naphthyridin-4-yl)oxy]phenyl]-5-(5-fluoropyridin-2-yl)-1,6-dimethyl-4-oxopyridine-3-carboxamide] | ≤ 100 nM | 300 to 1000 nM | ≤ 100 nM | ≤ 100 nM
10 | COc1cc2nccc(Oc3ccc(NC(=O)c4cnc(C)c(-c5ccc(F)cn5)c4O)cc3F)c2nc1OC [Compound 85, N-[4-[(6,7-Dimethoxy-1,5-naphthyridin-4-yl)oxy]-3-fluorophenyl]-5-(5-fluoropyridin-2-yl)-4-hydroxy-6-methylpyridine-3-carboxamide] | ≤ 100 nM | ≤ 100 nM | ≤ 100 nM | ≤ 100 nM
11 | COc1cc2nccc(Oc3ccc(NC(=O)c4cccn(-c5ccc(F)cn5)c4=O)cc3F)c2nc1OC [Compound 42, N-[4-[(6,7-Dimethoxy-1,5-naphthyridin-4-yl)oxy]-3-fluorophenyl]-1-(5-fluoropyridin-2-yl)-2-oxopyridine-3-carboxamide] | ≤ 100 nM | ≤ 100 nM | ≤ 100 nM | ≤ 100 nM
12 | COc1cc2nccc(Oc3ccc(NC(=O)c4c(C)ncc(-c5ccc(F)cn5)c4O)cc3F)c2nc1OC [Compound 68, N-[4-[(6,7-Dimethoxy-1,5-naphthyridin-4-yl)oxy]-3-fluorophenyl]-5-(5-fluoropyridin-2-yl)-4-hydroxy-2-methylpyridine-3-carboxamide] | ≤ 100 nM | ≤ 100 nM | ≤ 100 nM | ≤ 100 nM
13 | COc1cnc2c(Oc3ccc(NC(=O)c4c(C)ncc(-c5ccccn5)c4O)cc3F)ccnc2c1 [Compound 70, N-[3-Fluoro-4-[(7-methoxy-1,5-naphthyridin-4-yl)oxy]phenyl]-4-hydroxy-2-methyl-5-pyridin-2-ylpyridine-3-carboxamide] | ≤ 100 nM | ≤ 100 nM | ≤ 100 nM | ≤ 100 nM
14 | COc1cc2nccc(Oc3ccc(NC(=O)c4ccc(C)n(-c5ccc(F)cn5)c4=O)cc3)c2nc1OC [Compound 44, N-[4-[(6,7-Dimethoxy-1,5-naphthyridin-4-yl)oxy]phenyl]-1-(5-fluoropyridin-2-yl)-6-methyl-2-oxopyridine-3-carboxamide] | ≤ 100 nM | ≤ 100 nM | ≤ 100 nM | ≤ 100 nM
